Source: ChEMBL document CHEMBL1201862, “PubChem BioAssay data set” (2004)
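Following 48 hours of exposure in 96-well plates, responses at five concentrations were used to interpolate endpoints linearly. At the GI50, growth is halved.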 The source made the active and inactive calls. No stated cut-off is given here; in the data, active = GI50 up to about 1.1 µM and inactive = higher.

What was measured:
Experiment in all cases: NCI tumour cell line growth inhibition, 48 h
786-0 = tested on: 786-0
HCT-116 = tested on: HCT-116
HOP-62 = tested on: HOP-62
HT-29 = tested on: HT-29
LOX IMVI = tested on: LOX IMVI
MCF7 = tested on: MCF7
MOLT-4 = tested on: MOLT-4
Malme-3M = tested on: Malme-3M
NCI-H460 = tested on: NCI-H460
NCI/ADR-RES = tested on: NCI/ADR-RES
OVCAR-4 = tested on: OVCAR-4
OVCAR-5 = tested on: OVCAR-5
SF-295 = tested on: SF-295
SK-MEL-2 = tested on: SK-MEL-2
SK-MEL-5 = tested on: SK-MEL-5
SN12C = tested on: SN12C
SNB-19 = tested on: SNB-19
U-251 = tested on: U-251
UO-31 = tested on: UO-31
SR = tested on: SR

Row | SMILES | GI50 (786-0) | GI50 (HCT-116) | GI50 (HOP-62) | GI50 (HT-29) | GI50 (LOX IMVI) | GI50 (MCF7) | GI50 (MOLT-4) | GI50 (Malme-3M) | GI50 (NCI-H460) | GI50 (NCI/ADR-RES) | GI50 (OVCAR-4) | GI50 (OVCAR-5) | GI50 (SF-295) | GI50 (SK-MEL-2) | GI50 (SK-MEL-5) | GI50 (SN12C) | GI50 (SNB-19) | GI50 (U-251) | GI50 (UO-31) | GI50 (SR)
1 | Cc1ccc(N(Cc2ccccc2)Cc2ccccc2)cc1 | 73.3 µM (inactive) | 28.6 µM (inactive) | 26.7 µM (inactive) | 29.9 µM (inactive) | 34 µM (inactive) | 37.8 µM (inactive) | 23.8 µM (inactive) | 17 µM (inactive) | > 100 µM (inactive) | > 100 µM (inactive) | 32.7 µM (inactive) | > 100 µM (inactive) | 35.1 µM (inactive) | 24.3 µM (inactive) | 32.1 µM (inactive) | 72.3 µM (inactive) | > 100 µM (inactive) | 65.9 µM (inactive) | 48.4 µM (inactive) | –
2 | O=C1Nc2cccc(C(F)(F)F)c2/C1=N/Nc1ccccc1[N+](=O)[O-] | 15.5 µM (inactive) | 37.6 µM (inactive) | 25.1 µM (inactive) | 36.4 µM (inactive) | 17.1 µM (inactive) | 14.4 µM (inactive) | 28.6 µM (inactive) | – | 17.8 µM (inactive) | 30.8 µM (inactive) | 16.9 µM (inactive) | 86.5 µM (inactive) | 16.4 µM (inactive) | > 100 µM (inactive) | 21.4 µM (inactive) | 23.4 µM (inactive) | 51.5 µM (inactive) | 21 µM (inactive) | 33.9 µM (inactive) | 0.912 µM (active)
3 | CC1=CC(O)C(C(O)(C(F)(F)F)C(F)(F)F)C(C)(C)C1 (stereo not given) | < 0.001 µM (active) | > 10 µM (inactive) | > 10 µM (inactive) | > 10 µM (inactive) | > 10 µM (inactive) | > 10 µM (inactive) | > 10 µM (inactive) | > 10 µM (inactive) | > 10 µM (inactive) | > 10 µM (inactive) | > 10 µM (inactive) | > 10 µM (inactive) | > 10 µM (inactive) | > 10 µM (inactive) | 0.0371 µM (active) | > 10 µM (inactive) | > 10 µM (inactive) | > 10 µM (inactive) | – | –
4 | Cc1cc(O)c(C(O)c2ccccn2)cc1O (stereo not given) | 19.1 µM (inactive) | 16.7 µM (inactive) | 89.1 µM (inactive) | 21.4 µM (inactive) | 16.5 µM (inactive) | 18.1 µM (inactive) | 13.6 µM (inactive) | 20.7 µM (inactive) | 49.2 µM (inactive) | 27.5 µM (inactive) | – | 17.2 µM (inactive) | > 100 µM (inactive) | – | 23.2 µM (inactive) | 18.7 µM (inactive) | 55.3 µM (inactive) | 36.7 µM (inactive) | 19.1 µM (inactive) | 3.01 µM (inactive)
5 | NC1N=C(c2ccc(Cl)cc2)C2=C(N1)c1ccccc1CC2 (stereo not given) | 13.2 µM (inactive) | 8.39 µM (inactive) | > 40.6 µM (inactive) | 3.16 µM (inactive) | 4.13 µM (inactive) | 6.55 µM (inactive) | 3.17 µM (inactive) | 10.3 µM (inactive) | 8.51 µM (inactive) | 13 µM (inactive) | 13.4 µM (inactive) | 51.1 µM (inactive) | 22.3 µM (inactive) | 9.08 µM (inactive) | 14.7 µM (inactive) | 19.9 µM (inactive) | > 68.5 µM (inactive) | 25.6 µM (inactive) | 32.7 µM (inactive) | –
6 | O=C(CC(=O)Nc1ccccc1Cl)NNC(Sc1ccccc1)c1cc(/N=N/c2ccc(Br)cc2)ccc1O (stereo not given) | 0.653 µM (active) | 0.387 µM (active) | 2.56 µM (inactive) | > 10 µM (inactive) | 0.927 µM (active) | 0.681 µM (active) | 0.321 µM (active) | 2.12 µM (inactive) | 0.625 µM (active) | 1.28 µM (inactive) | 1.86 µM (inactive) | 3.01 µM (inactive) | 1.88 µM (inactive) | 3.3 µM (inactive) | 1.07 µM (active) | 2.22 µM (inactive) | 4.06 µM (inactive) | 1.59 µM (inactive) | 1.14 µM (inactive) | –
7 | O=C1Nc2cc(Cl)ccc2C(=O)N2CCC[C@@H]12 | > 100 µM (inactive) | > 100 µM (inactive) | > 100 µM (inactive) | > 100 µM (inactive) | > 100 µM (inactive) | > 100 µM (inactive) | – | > 100 µM (inactive) | > 100 µM (inactive) | > 100 µM (inactive) | > 100 µM (inactive) | > 100 µM (inactive) | > 100 µM (inactive) | > 100 µM (inactive) | > 100 µM (inactive) | > 100 µM (inactive) | > 100 µM (inactive) | > 100 µM (inactive) | > 100 µM (inactive) | –
8 | COc1cc2c(cc1OC)CC(=O)c1cc(OC)c(OC)cc1/C=C\2 | > 12.5 µM (inactive) | > 12.5 µM (inactive) | > 12.5 µM (inactive) | 5.79 µM (inactive) | > 12.5 µM (inactive) | > 12.5 µM (inactive) | 9.93 µM (inactive) | 2.93 µM (inactive) | > 12.5 µM (inactive) | > 12.5 µM (inactive) | > 12.5 µM (inactive) | > 12.5 µM (inactive) | 7.16 µM (inactive) | > 12.5 µM (inactive) | 7.74 µM (inactive) | > 12.5 µM (inactive) | > 12.5 µM (inactive) | > 12.5 µM (inactive) | > 12.5 µM (inactive) | –
9 | O=c1cc(NCC2CCCCC2)[nH]c(=O)[nH]1 | > 100 µM (inactive) | > 100 µM (inactive) | > 100 µM (inactive) | – | > 100 µM (inactive) | > 100 µM (inactive) | – | > 100 µM (inactive) | > 100 µM (inactive) | > 100 µM (inactive) | > 100 µM (inactive) | > 100 µM (inactive) | > 100 µM (inactive) | – | > 100 µM (inactive) | > 100 µM (inactive) | > 100 µM (inactive) | > 100 µM (inactive) | > 100 µM (inactive) | > 100 µM (inactive)
10 | O=C1/C(=C/c2ccco2)N=C2Sc3c([nH]cnc3=O)N12 | > 100 µM (inactive) | > 100 µM (inactive) | > 100 µM (inactive) | > 100 µM (inactive) | > 100 µM (inactive) | > 100 µM (inactive) | > 100 µM (inactive) | > 100 µM (inactive) | – | > 100 µM (inactive) | 44.4 µM (inactive) | > 100 µM (inactive) | > 100 µM (inactive) | > 100 µM (inactive) | > 100 µM (inactive) | > 100 µM (inactive) | > 100 µM (inactive) | > 100 µM (inactive) | > 100 µM (inactive) | –
11 | c1ccc2c(c1)ccc1nc3ccccn3c12 | > 100 µM (inactive) | – | > 100 µM (inactive) | > 100 µM (inactive) | – | > 100 µM (inactive) | > 100 µM (inactive) | > 100 µM (inactive) | > 100 µM (inactive) | > 100 µM (inactive) | – | > 100 µM (inactive) | > 100 µM (inactive) | – | 89.7 µM (inactive) | > 100 µM (inactive) | > 100 µM (inactive) | > 100 µM (inactive) | 70.6 µM (inactive) | > 100 µM (inactive)
